Reference: paper PMC10138506, “Design, Synthesis and Cytotoxic Activity of Novel Salicylaldehyde Hydrazones against Leukemia and Breast Cancer” (International Journal of Molecular Sciences, 2023)
Like-named read-outs stand apart in the source and are kept apart here.

Tests used:
[1] = tested on: BV-173 cells; assay: MTT-dye reduction cytotoxicity assay, BV-173; assay type: cell-based, human; details: for IC50: Homo sapiens, BV-173; for SI (selectivity index) BV-173: SI = IC50 (HEK-293)/IC50 (cancer cells)
Procedure: (§1) The research included four leukemic and three cancer human cell lines: HL-60 (acute myeloid leukemia), SKW-3 (KE-37 derivative) (T-cell leukemia), BV-173 and K-562 (chronic myeloid leukemia), MDA-MB-231 (ER-negative breast carcinoma), MCF-7 (ER-positive breast adenocarcinoma), and SaOS-2 (osteogenic sarcoma). The cells were provided from the German Collection of Microorganisms and Cell Cultures (DSMZ, Braunschweig, Germany). The solid tumor cell lines (MDA-MB-231, MCF-7, and SaOS-2) were incubated in 90% RPMI-1640 supplemented with 10% fetal bovine serum (FBS), non-essential amino acids, 1 mM sodium pyruvate, and […] human insulin as monolayer adherent cultures. The remaining cell lines were cultivated as a suspension culture in cell culture flasks at 37 °C in an incubator “BB 16-Function Line” Heraeus (Kendro, Hanau, Germany) with humidified atmosphere and 5% CO2 under standard conditions–RPMI-1640 liquid media supplemented with 10% FBS and 2 mM L-glutamine. The cells were kept in log phase by supplementing with fresh media after removing cell suspension aliquots two or three times each week.
(§2) At least eight wells were used for each concentration.

[2] = tested on: MDA-MB-231 cells; assay: MTT-dye reduction cytotoxicity assay, MDA-MB-231; assay type: cell-based, human; details: for IC50: Homo sapiens, MDA-MB-231; for SI (selectivity index) MDA-MB-231: SI = IC50 (HEK-293)/IC50 (cancer cells)
Procedure: as §1, §2

[3] = tested on: KE-37 cells; assay: MTT-dye reduction cytotoxicity assay, KE-37; assay type: cell-based, human; details: for IC50: Homo sapiens, KE-37; for SI (selectivity index) KE-37: SI = IC50 (HEK-293)/IC50 (cancer cells)
Procedure: as §1, §2

[4] = tested on: K-562 cells; assay: MTT-dye reduction cytotoxicity assay, K-562; assay type: cell-based, human; details: for IC50: Homo sapiens, K562; for SI (selectivity index) K-562: SI = IC50 (HEK-293)/IC50 (cancer cells)
Procedure: as §1, §2

[5] = tested on: MCF-7 cells; assay: MTT-dye reduction cytotoxicity assay, MCF-7; assay type: cell-based, human; details: for IC50: Homo sapiens, MCF7; for SI (selectivity index) MCF-7: SI = IC50 (HEK-293)/IC50 (cancer cells)
Procedure: as §1, §2

[6] = tested on: SaOS-2 cells; assay: MTT-dye reduction cytotoxicity assay, SaOS-2; assay type: cell-based, human; details: for IC50: Homo sapiens, SAOS-2; for SI (selectivity index) SaOS-2: SI = IC50 (HEK-293)/IC50 (cancer cells)
Procedure: as §1, §2

[7] = tested on: HL-60 cells; assay: MTT-dye reduction cytotoxicity assay, HL-60; assay type: cell-based, human; details: for IC50: Homo sapiens, HL-60; for SI (selectivity index) HL-60: SI = IC50 (HEK-293)/IC50 (cancer cells)
Procedure: as §1, §2

[8] = MTT-dye reduction cytotoxicity assay, normal HEK-293; details: human
Procedure: (§3) To assess the selectivity of the newly synthesized derivatives, they were tested on the normal human embryonic kidney HEK-293 cell line. The derived IC50 values were used to calculate the selectivity index according to the formula SI = IC50 (normal cells)/IC50 (cancer cells).
The cytotoxic activity of the examined substances was determined using Mossman’s MTT [3-(4,5-dimethylthiazol-2-yl)-2,5-diphenyltetrazolium bromide] dye reduction assay. The approach is based on the reduction of the yellow tetrazolium salt MTT to a violet formazan in live cells via mitochondrial succinate dehydrogenase. In brief, exponentially developing cells were seeded at a density of 1 × 10^5 cells per ml in 96-well flat-bottomed microplates (100 μL/well), and after 24 h of incubation at 37 °C, they were treated to varied doses of the tested substances for 72 h. At least eight wells were used for each concentration. Following the incubation with the test compounds, aliquots of 10 μL MTT solution (10 mg/mL in PBS) were applied to each well. The microplates were then incubated at 37 °C for 4 h before the MTT-formazan crystals were dissolved with 100 μL/well 5% HCOOH in 2-propanol. The MTT-formazan absorbance was measured at 580 nm using a microprocessor-controlled microplate reader (Labexim LMR-1).
The cell survival data were standardized as a percentage of the untreated control (set as 100% viability). The biological data were processed statistically using Student’s t-test, where values were considered statistically significant at p ≤ 0.05. The corresponding IC50 values were obtained to allow quantitative merit for the assessment of the relative potencies of the compounds under investigation. Each data point represents the arithmetic mean ± standard deviation (sd) of at least eight independent experiments.

[9] = tested on: HL-60, KE-37, K-562, BV-173, SaOS-2, MDA-MB-231, MCF-7 cell lines; assay: Average over the cancer cell lines tested (LE, SI); assay type: cell-based, human; details: average over seven cancer cell lines
Procedure: as §3
The training set of salicylaldehyde hydrazones contained 11 compounds synthesized and tested before in our Lab. Their anticancer activities were measured and expressed as IC50 values on the following cell lines: HL-60, KE-37, K-562, BV-173, SaOS-2, MDA-MB-231, and MCF-7. For the purposes of SAR analysis, the IC50 values were converted in p-units (−logIC50) and ligand efficiencies (LEs) were calculated according to the formula: LE = pIC50/n, where n is the count of non-hydrogen atoms in the molecule.

[10] = training set, some activities published before [26-32], the rest measured for this study, read-out: IC50 ± standard deviation, BV-173
[11] = training set, some activities published before [26-32], the rest measured for this study, read-out: IC50 ± standard deviation, MDA-MB-231
[12] = training set, some activities published before [26-32], the rest measured for this study, read-out: IC50 ± standard deviation, KE-37
[13] = training set, some activities published before [26-32], the rest measured for this study, read-out: IC50 ± standard deviation, MCF-7
[14] = training set, some activities published before [26-32], the rest measured for this study, read-out: IC50 ± standard deviation, SaOS-2
[15] = training set, some activities published before [26-32], the rest measured for this study, read-out: IC50 ± standard deviation, HL-60
[16] = 72 h treatment, read-out: IC50 exp, BV-173
[17] = 72 h treatment, read-out: IC50 exp, MDA-MB-231
[18] = 72 h treatment, read-out: IC50 exp, KE-37
[19] = HEK-293 cells (normal human embryonic kidney)
[20] = 72 h treatment, read-out: IC50 exp, K-562
[21] = 72 h treatment, read-out: IC50 exp, MCF-7
[22] = 72 h treatment, read-out: IC50 exp, SaOS-2
[23] = 72 h treatment, read-out: IC50 exp, HL-60
[24] = compound 13 versus benzoyl analog

Row | SMILES | IC50 [1, 10] [µM] | IC50 [2, 11] [µM] | IC50 [3, 12] [µM] | IC50 [5, 13] [µM] | IC50 [7, 15] [µM] | IC50 [1, 16] [µM] | SI (selectivity index) BV-173 [1] | IC50 [2, 17] [µM] | SI (selectivity index) MDA-MB-231 [2] | IC50 [3, 18] [µM] | SI (selectivity index) KE-37 [3] | IC50 at 72 h [8, 19] [µM] | IC50 [4, 20] [µM] | SI (selectivity index) K-562 [4] | IC50 [5, 21] [µM] | SI (selectivity index) MCF-7 [5] | IC50 [6, 22] [µM] | SI (selectivity index) SaOS-2 [6] | IC50 [7, 23] [µM] | SI (selectivity index) HL-60 [7] | further results
1 | O=C(N/N=C/c1cc([N+](=O)[O-])ccc1O)c1ccncc1 [Compound 8] | 10.2 ± 1.1 | 72.3 ± 5.6 | 17 ± 3.1 | 0.18 ± 0.03 | 15 ± 2.4 | – | – | – | – | – | – | – | – | – | – | – | – | – | – | – | IC50 ([4]; training set, some activities published before [26-32], the rest measured for this study, read-out: IC50 ± standard deviation, K-562): 19 ± 2.7 µM; Ligand Efficiency (LE) K-562 ([4]; LE = pIC50/number of heavy atoms): 0.225; IC50 [6, 14]: 35.7 ± 4.3 µM
2 | COc1ccc(O)c(/C=N/NC(=O)c2ccccc2)c1 [Compound 9] | 3.15 ± 0.8 | 4.46 ± 1.1 | 3.38 ± 1 | 0.91 ± 0.3 | 5.29 ± 1.2 | – | – | – | – | – | – | – | – | – | – | – | – | – | – | – | –
3 | COc1ccc(O)c(/C=N/NC(=O)c2ccc(O)cc2)c1 [Compound 10] | 3.86 ± 0.9 | 12.1 ± 1.9 | 14.8 ± 2.5 | 3.54 ± 0.5 | 13.8 ± 3.1 | – | – | – | – | – | – | – | – | – | – | – | – | – | – | – | –
4 | COc1ccc(O)c(/C=N/NC(=O)c2ccncc2)c1 [Compound 11] | 2.95 ± 0.8 | 5.58 ± 1.3 | 10.9 ± 2.2 | 3 ± 0.6 | 6.68 ± 1.4 | – | – | – | – | – | – | – | – | – | – | – | – | – | – | – | –
5 | COc1ccc(C=NNC(=O)c2ccccc2)c(O)c1 [Compound 12, 4-methoxysalicylaldehyde benzoylhydrazone] | – | – | – | – | – | 1.21 ± 0.11 | 31 | 2.31 ± 0.25 | 16 | 1.99 ± 0.17 | 19 | 37.6 ± 3.41 | 0.03 ± 0.002 | 1254 | 0.23 ± 0.02 | 164 | 1.68 ± 0.15 | 22 | 0.04 ± 0.005 | 941 | melting point: 182 to 183 °C; average SI [9]: 350
6 | COc1ccc(C=NNC(=O)c2ccc(O)cc2)c(O)c1 [Compound 13, 4-methoxysalicylaldehyde-4-hydroxybenzoylhydrazone] | – | – | – | – | – | 3.88 ± 1.16 | 15 | 2.9 ± 0.32 | 20 | 10.8 ± 2.81 | 5 | 56.7 ± 4.35 | 8.75 ± 1.29 | 6 | 1.38 ± 0.08 | 41 | 26 ± 3.65 | 2 | 8.9 ± 2.47 | 6 | melting point: 216 to 217 °C; reduction of cytotoxicity by hydroxy group in the benzoyl ring, BV-173 [1, 24]: 3 fold; reduction of cytotoxicity by hydroxy group in the benzoyl ring, MDA-MB-231 [2, 24]: 1.25 fold; reduction of cytotoxicity by hydroxy group in the benzoyl ring, K-562 [4, 24]: 292 fold; reduction of cytotoxicity by hydroxy group in the benzoyl ring, MCF-7 [5, 24]: 6 fold; reduction of cytotoxicity by hydroxy group in the benzoyl ring, sarcomic cells [6, 24]: 15.5 fold; average SI [9]: 14
7 | COc1ccc(C=NNC(=O)c2ccncc2)c(O)c1 [Compound 14, 4-methoxysalicylaldehyde isonicotinoylhydrazone] | – | – | – | – | – | 0.97 ± 0.12 | 42 | 1.22 ± 0.19 | 34 | 2.26 ± 0.73 | 18 | 41.1 ± 2.05 | 0.05 ± 0.008 | 821 | 0.23 ± 0.04 | 179 | 1.66 ± 0.24 | 25 | 0.06 ± 0.004 | 685 | average SI [9]: 258
8 | N[C@@H](Cc1ccc(N(CCCl)CCCl)cc1)C(=O)O [Melphalan, 2-amino-3-[4-bis(2-chloroethyl)amino]phenylpropanoic acid, reference compound] | – | – | – | – | – | – | – | – | – | – | – | – | – | – | – | – | 31.4 ± 5.4 | – | – | – | IC50 at 72 h [8]: 24.8 ± 2.9 µM; IC50 [6, 14]: 31.4 ± 5.4 µM
